From ChEMBL document CHEMBL1201862, “PubChem BioAssay data set” (2004)
Active and inactive are the calls of the source.

How the values were obtained:
Cytochrome P450 3A4 [1] = biological target: T1, Cytochrome P450 3A4 (Homo sapiens, UniProt P08684); conditions: Potency
Vero = experiment: cells; assay type: functional; conditions: Chlorocebus sabaeus
[2] = biological target: T2, RNA-binding protein pos-1 (Caenorhabditis elegans, UniProt G5EF15); experiment: disruptors of C. elegans POS-1 RNA interaction – biochemical, fluorescence polarization, dose response (AID 1964);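 further: purified POS-1 fused to maltose binding protein made in E. coli; potency of compounds blocking POS-1 binding to fluorescent RNA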
T2 sequence (G5EF15 whole entry): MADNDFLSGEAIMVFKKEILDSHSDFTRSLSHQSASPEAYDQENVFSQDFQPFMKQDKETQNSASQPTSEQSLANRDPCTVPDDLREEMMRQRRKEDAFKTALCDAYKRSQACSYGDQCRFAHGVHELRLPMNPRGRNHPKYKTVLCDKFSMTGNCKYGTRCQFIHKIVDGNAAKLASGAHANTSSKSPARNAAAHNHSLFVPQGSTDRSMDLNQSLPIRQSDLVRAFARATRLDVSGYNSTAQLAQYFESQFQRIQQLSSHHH

[3] = biological target: T3, Zinc finger protein mex-5 (Caenorhabditis elegans, UniProt Q9XUB2); experiment: potency of MEX-5 RNA-binding blockers – biochemical, C. elegans, fluorescence polarization, dose response (AID 1960)
T3 sequence (Q9XUB2 whole entry): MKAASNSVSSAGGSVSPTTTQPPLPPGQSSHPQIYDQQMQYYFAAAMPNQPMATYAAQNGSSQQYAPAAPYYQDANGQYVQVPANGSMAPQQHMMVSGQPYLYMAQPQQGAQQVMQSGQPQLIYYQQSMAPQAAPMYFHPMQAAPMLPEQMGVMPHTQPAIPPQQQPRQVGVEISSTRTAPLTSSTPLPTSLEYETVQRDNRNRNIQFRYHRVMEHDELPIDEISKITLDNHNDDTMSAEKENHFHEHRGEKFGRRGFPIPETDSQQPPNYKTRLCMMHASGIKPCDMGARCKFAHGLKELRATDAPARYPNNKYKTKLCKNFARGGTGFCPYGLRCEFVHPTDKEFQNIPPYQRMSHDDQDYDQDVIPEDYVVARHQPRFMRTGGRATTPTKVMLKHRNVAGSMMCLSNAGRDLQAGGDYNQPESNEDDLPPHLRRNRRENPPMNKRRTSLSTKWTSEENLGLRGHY

[4] = biological target: FAD-linked sulfhydryl oxidase ALR (Homo sapiens, UniProt P55789); experiment: ALR-catalysed DTT oxidation blockers – biochemical, H2O2 detection, luminescence, cherry-pick, dose response (AID 493248)
[5] = NIH-3T3 fibroblast cytotoxicity, dose response, cytotoxicity control, cell-based, fluorescence, Alamar Blue, secondary assay (AID 2327); assay type: functional;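 further: NIH-3T3 mouse fibroblasts cultured with fluconazole at 8 µg/mL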
H4 = experiment: Luminescence Cell-Based Dose Response HTS to Identify Activators of 5'UTR Stem-Loop Driven Prion Protein mRNA Translation in H4 Neuroglioblastoma Cells. [Related pubchem assays: 1829 (Project Summary), 1814 (Primary HTS)]; assay type: functional; conditions: Homo sapiens
[6] = Luminescence Cell-Based Dose Confirmation HTS to Identify Activators of 5'UTR Stem-Loop Driven Alpha-Synuclein mRNA Translation in H4 Neuroglioblastoma Cells. [Related pubchem assays: 1829 (Project Summary), 1814 (Primary HTS)]; assay type: functional
[7] = fluconazole-exposed Candida albicans growth modulators – fluorescence, retest, confirmation (AID 2467); assay type: functional, cell-based
[8] = Luminescence Cell-Based Dose Retest to Confirm Inhibitors of Cancer Stem Cells. [Related pubchem assays (depositor defined):AID2717, AID2721]; assay type: functional; conditions: Homo sapiens
[9] = viability of uninfected HEp-2 cells – cell-based, HTS, cytotoxicity control for RSV inhibitor project, dose response (AID 2410); assay type: functional; conditions: human respiratory syncytial virus
[10] = Luminescence Cell-Based Dose Response HTS to Identify Activators of Luciferase Translation or Activity in H4 […] Cells. [Related pubchem assays: 1829 (Project Summary), 1814 (Primary HTS)]; assay type: functional
Cytochrome P450 3A4 [11] = biological target: T1, Cytochrome P450 3A4
Cytochrome P450 2C9 = Cytochrome P450 2C9 (Homo sapiens, UniProt P11712)
[12] = luciferase reporter signal suppression in cells – H4 neuroglioma cells, luminescence, dose response (AID 1990); assay type: functional, cell-based
[13] = alpha-synuclein stem-loop luciferase translation blockers – H4 neuroglioma cells, luminescence, confirmation (AID 1988); assay type: functional, cell-based
[14] = Luminescence Cell-Based Dose Response HTS to Identify Inhibitors of 5'UTR Stem-Loop Driven Prion Protein mRNA Translation in H4 Neuroglioblastoma Cells. [Related pubchem assays: 1827 (Project Summary), 1813 (Primary HTS)]; assay type: functional
[15] = biological target: T4, Rac GTPase-activating protein 1 (Homo sapiens, UniProt Q9H0H5); experiment: blockers of MgcRacGAP-driven Rac1 GTP hydrolysis – biochemical, ADP Hunter fluorescence, primary and confirmatory, confirmation (AID 624330); assay type: functional
T4 sequence (Q9H0H5 whole entry): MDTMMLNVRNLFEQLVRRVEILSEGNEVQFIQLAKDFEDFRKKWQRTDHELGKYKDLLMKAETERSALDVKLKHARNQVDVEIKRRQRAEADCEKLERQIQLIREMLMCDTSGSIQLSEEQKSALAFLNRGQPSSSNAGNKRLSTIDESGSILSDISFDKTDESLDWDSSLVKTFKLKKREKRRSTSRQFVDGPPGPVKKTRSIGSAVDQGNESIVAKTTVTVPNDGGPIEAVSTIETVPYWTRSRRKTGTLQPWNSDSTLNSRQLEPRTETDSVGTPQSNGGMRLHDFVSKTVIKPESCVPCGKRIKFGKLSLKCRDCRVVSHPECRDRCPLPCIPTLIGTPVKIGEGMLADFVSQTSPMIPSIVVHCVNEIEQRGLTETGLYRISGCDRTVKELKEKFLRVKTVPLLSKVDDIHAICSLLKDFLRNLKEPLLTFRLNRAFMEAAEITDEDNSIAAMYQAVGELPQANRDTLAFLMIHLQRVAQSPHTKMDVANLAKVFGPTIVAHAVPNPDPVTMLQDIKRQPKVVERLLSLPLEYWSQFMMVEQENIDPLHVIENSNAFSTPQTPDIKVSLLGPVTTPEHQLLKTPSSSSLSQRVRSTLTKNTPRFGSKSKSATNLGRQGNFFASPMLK

Large T antigen = Large T antigen (Simian virus 40, UniProt P03070); assay type: functional, Betapolyomavirus macacae;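 further: Confirmatory-stage PubChem screen for compounds that inhibit SV40 T antigen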
[16] = biological target: T5, Corticotropin-releasing factor receptor 2/Corticotropin-releasing factor-binding protein (Homo sapiens, UniProt P24387+Q13324); experiment: activators of CRF receptor 2 with binding protein – uHTS hits, confirmation (AID 602473); assay type: functional; conditions: read-out: EC50_Mean
T5 sequence (Q13324 whole entry): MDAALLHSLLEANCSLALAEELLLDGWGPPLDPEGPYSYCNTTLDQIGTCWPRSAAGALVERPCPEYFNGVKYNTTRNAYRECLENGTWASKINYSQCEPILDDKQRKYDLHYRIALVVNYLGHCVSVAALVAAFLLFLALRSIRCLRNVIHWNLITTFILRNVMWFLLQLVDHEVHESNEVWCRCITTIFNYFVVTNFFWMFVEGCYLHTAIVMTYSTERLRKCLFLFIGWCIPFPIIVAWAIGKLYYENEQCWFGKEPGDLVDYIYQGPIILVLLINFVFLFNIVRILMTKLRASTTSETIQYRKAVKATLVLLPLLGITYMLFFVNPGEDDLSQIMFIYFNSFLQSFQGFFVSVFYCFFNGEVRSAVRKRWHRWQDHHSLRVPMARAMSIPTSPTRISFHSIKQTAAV
T5 sequence (P24387 whole entry): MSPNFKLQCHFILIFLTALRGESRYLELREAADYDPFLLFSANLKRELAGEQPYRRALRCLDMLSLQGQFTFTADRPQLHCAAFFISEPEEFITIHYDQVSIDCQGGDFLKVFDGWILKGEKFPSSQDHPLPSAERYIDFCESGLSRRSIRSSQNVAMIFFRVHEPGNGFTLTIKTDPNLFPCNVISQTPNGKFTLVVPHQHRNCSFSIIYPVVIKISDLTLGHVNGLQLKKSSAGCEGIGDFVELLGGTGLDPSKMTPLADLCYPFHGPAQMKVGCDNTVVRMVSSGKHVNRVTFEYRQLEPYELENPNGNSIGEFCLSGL

T1 sequence (P08684 whole entry): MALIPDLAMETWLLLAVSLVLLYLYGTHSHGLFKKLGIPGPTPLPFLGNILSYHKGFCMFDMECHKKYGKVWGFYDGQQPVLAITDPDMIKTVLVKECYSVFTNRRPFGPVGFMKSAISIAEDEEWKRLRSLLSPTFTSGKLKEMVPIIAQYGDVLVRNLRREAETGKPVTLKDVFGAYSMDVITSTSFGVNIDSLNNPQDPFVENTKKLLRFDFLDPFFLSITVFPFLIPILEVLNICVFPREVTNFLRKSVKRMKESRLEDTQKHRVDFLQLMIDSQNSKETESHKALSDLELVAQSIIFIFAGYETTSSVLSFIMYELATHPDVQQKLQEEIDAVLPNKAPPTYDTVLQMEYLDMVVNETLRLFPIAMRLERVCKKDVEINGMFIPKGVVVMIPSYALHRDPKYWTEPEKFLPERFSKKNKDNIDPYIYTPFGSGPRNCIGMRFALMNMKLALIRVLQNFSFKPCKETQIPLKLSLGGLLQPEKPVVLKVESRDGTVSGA
FAD-linked sulfhydryl oxidase ALR, sequence (P55789 whole entry): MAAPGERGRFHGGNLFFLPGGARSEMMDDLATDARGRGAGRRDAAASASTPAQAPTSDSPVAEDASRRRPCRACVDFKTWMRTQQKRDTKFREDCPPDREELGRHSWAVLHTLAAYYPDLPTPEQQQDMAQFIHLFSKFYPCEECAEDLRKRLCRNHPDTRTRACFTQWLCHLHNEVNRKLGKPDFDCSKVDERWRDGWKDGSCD
Large T antigen, sequence (P03070 whole entry): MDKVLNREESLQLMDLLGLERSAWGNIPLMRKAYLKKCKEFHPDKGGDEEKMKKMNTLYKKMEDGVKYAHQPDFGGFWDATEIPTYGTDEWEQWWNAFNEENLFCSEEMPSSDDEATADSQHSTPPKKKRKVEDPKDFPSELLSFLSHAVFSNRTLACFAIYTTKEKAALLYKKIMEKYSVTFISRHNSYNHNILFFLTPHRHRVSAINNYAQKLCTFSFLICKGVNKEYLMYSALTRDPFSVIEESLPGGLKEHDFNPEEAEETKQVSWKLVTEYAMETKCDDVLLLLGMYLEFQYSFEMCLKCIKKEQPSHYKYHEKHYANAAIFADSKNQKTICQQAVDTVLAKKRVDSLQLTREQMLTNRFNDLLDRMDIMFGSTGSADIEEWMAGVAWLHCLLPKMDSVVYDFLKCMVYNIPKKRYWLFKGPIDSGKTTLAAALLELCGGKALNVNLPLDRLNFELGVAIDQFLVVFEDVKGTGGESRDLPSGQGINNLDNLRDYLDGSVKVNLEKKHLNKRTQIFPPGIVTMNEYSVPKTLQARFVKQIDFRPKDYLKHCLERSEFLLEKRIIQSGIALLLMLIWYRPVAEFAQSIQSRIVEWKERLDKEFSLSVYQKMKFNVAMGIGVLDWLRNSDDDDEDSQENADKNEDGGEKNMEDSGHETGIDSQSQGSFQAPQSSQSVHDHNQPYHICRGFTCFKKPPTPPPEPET
Cytochrome P450 2C9, sequence (P11712 whole entry): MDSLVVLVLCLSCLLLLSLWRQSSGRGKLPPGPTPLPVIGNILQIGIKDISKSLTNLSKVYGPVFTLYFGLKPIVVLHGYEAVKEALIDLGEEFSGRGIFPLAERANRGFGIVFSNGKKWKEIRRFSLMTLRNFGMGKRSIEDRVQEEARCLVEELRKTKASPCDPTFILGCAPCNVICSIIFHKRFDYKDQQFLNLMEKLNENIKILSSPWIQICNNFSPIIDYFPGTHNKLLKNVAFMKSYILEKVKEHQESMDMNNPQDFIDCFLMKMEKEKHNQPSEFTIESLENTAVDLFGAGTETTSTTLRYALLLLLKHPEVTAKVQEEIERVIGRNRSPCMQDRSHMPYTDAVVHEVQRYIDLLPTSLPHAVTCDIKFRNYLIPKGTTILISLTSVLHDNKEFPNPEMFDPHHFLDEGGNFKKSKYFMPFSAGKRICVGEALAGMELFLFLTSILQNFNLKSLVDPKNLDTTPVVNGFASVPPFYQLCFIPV

SMILES: O=C(OCC1CO1)C1CCCCC1C(=O)OCC1CO1 (stereo unspecified)
- AC50 (Cytochrome P450 3A4 [1]): 25.1 µM (inconclusive)

SMILES: CCN1C(C)=C(C(=O)OC)C(c2ccccc2)N2C(=O)[C@](O)(C(=O)OC)CC(C#N)=C12 (stereo partly specified)
- AC50 (Cytochrome P450 3A4 [1]): 3.98 µM (inconclusive)

SMILES: N#Cc1c(NC(=O)CSc2nc3ccccc3c(=O)n2Cc2ccco2)sc2c1CCCC2
- CC50 (Vero): > 25 µM (active)

SMILES: CCOC(CNC(=O)CCc1c(C)nc2nc(C)nn2c1C)OCC
- EC50 [2]: > 300 µM (not active)
- EC50 [3]: > 300 µM (not active)

SMILES: COC(=O)[C@@H]1C[C@H]2CC[C@H](O)C[C@H]2N1Cc1ccc(C(F)(F)F)cc1
- AC50 (Cytochrome P450 3A4 [1]): 12.6 µM (inconclusive)

SMILES: COc1ccc(N2CC(NC(=O)N3CCN(c4ccccc4)CC3)CC2=O)cc1 (stereo unspecified)
- AC50 [4]: 4.41 µM (active)

SMILES: Cc1ccc(C2=CSC3=NNC4(CCCCC4)NN23)cc1
- EC50 [5]: 22.3 µM (inconclusive)
- EC50 (H4): 12.4 µM (active)
- EC50 [6]: 9.71 µM (active)
- AC50 [4]: 1.86 µM (active)
- EC50 [7]: 1.76 µM (active)

SMILES: O=C(NCc1nnc(S)n1-c1ccc(Cl)c(Cl)c1)c1ccco1
- AC50 [4]: 4.14 µM (active)

SMILES: Oc1c(Cl)cc(Cl)cc1CNc1ccc(Br)cn1
- AC50 [4]: 5.33 µM (active)
- AC50 [8]: 2.56 µM (active)

SMILES: COc1ccc(NC(=O)c2ccc(NCCCN3CCOCC3)c([N+](=O)[O-])c2)cc1
- EC50 [2]: > 300 µM (not active)
- EC50 [3]: > 300 µM (not active)

SMILES: Cc1ccc2cc(/C=C/C(=O)c3ccco3)c(Cl)nc2c1
- CC50 (Vero): 14.3 µM (active)
- CC50 [9]: 21.2 µM (active)

SMILES: CCOc1ccccc1C1N=C(c2ccc(OC)cc2)CC(c2ccccc2O)N1 (stereo unspecified)
- EC50 [10]: 14.3 µM (active)
- CC50 (Vero): > 25 µM (active)
- EC50 (H4): 12.3 µM (active)
- EC50 [6]: 14.2 µM (active)

SMILES: CCn1c(=N)c(S(=O)(=O)c2ccc(F)cc2)cc2c(=O)n3ccccc3nc21
- EC50 [2]: 7.64 µM (active)
- AC50 (Cytochrome P450 3A4 [11]): 10 µM (inconclusive)
- EC50 [3]: 26.2 µM (inconclusive)
- AC50 (Cytochrome P450 2C9): 22.4 µM (inconclusive)

SMILES: CCOc1cc(/C=C/c2cccc[n+]2C)ccc1OCC(=O)Nc1ccc(C)cc1
- EC50 [2]: > 300 µM (not active)
- EC50 [3]: > 300 µM (not active)

SMILES: Cc1ccc(-c2c[nH]c(SCCNC(=O)c3ccco3)n2)cc1
- AC50 [4]: 2.88 µM (active)

SMILES: CC(=O)c1ccc(S(=O)(=O)NCC(=O)NC(c2nc3ccccc3[nH]2)C(C)C)cc1 (stereo unspecified)
- AC50 [4]: 0.113 µM (active)

SMILES: O=C(N/N=C/c1ccc(Cl)cc1)c1cc(-c2cccnc2)nc2ccccc12
- EC50 [12]: > 120 µM (not active)
- EC50 [13]: 9.23 µM (active)
- EC50 [14]: 12.8 µM (active)

SMILES: COc1cc(/C=N/NC(=O)CCN2CCCCC2)ccc1O
- IC50 [15]: 32.1 µM (active)
- AC50 [4]: 3.05 µM (active)

SMILES: COc1ccc2c(/C=N/Nc3ccc(C(=O)O)cc3)c[nH]c2c1
- IC50 [15]: 54.9 µM (active)
- AC50 [4]: 1.9 µM (active)

SMILES: COc1cc(/C=N/NC2=NCCCCC2)ccc1O
- IC50 (Large T antigen): 6.11 µM (active)
- IC50 [15]: 22.5 µM (active)
- AC50 [4]: 0.028 µM (active)

SMILES: CN(C)c1ccc(N)cc1
- AC50 (Cytochrome P450 3A4 [1]): 15.8 µM (inconclusive)

SMILES: Cc1cccc(/C=C\c2ccccc2)n1
- AC50 (Cytochrome P450 3A4 [1]): 15.8 µM (inconclusive)

SMILES: CC(=O)c1cc2c(cc1O)OC(C)(C)C=C2
- AC50 (Cytochrome P450 3A4 [1]): 31.6 µM (inconclusive)

SMILES: C=C[C@@](C)(O)CC[C@@H]1[C@@]2(C)CCCC(C)(C)[C@@H]2CC[C@@]1(C)O
- AC50 (Cytochrome P450 3A4 [1]): 10 µM (inconclusive)

SMILES: CC1=CC(=C(C#N)c2nc3ccccc3s2)C=C(C)N1CC1CCCO1 (stereo unspecified)
- EC50 [16]: 14.7 µM (active)
- EC50 [2]: 12.3 µM (inconclusive)
- EC50 [3]: 13.5 µM (inconclusive)

SMILES: COc1ccc(-c2coc3cc(O)ccc3c2=O)c(OC)c1 [2'-METHOXYFORMONETIN]
- AC50 (Cytochrome P450 3A4 [1]): 39.8 µM (inconclusive)

SMILES: Nc1cc(Cl)cc(C(=O)O)c1Cl [CHLORAMBEN]
- AC50 (Cytochrome P450 3A4 [1]): 25.1 µM (inconclusive)

SMILES: Cc1cc(O)c(C=O)c(O)c1C(=O)O [HAEMATOMMIC ACID]
- AC50 (Cytochrome P450 3A4 [1]): 25.1 µM (inconclusive)
